# Assay results from paper PMC9596378, “Discovery and molecular basis of subtype-selective cyclophilin inhibitors” (Nature Chemical Biology, 2022).
# Where “and” joins values, the source holds several entries; their conditions need not be identical. Identical values can stand only once. Like-named read-outs stand apart in the source and are kept apart here.
# Columns and labels:
# CypD = CypD (Homo sapiens, UniProt P30405); assay: Chymotrypsin coupled prolyl-isomerase assay; details: for CypD prolyl-isomerase assay raw dose-response value: Fig. 3b source data, replicates
# Sequence of CypD (P30405 45-207): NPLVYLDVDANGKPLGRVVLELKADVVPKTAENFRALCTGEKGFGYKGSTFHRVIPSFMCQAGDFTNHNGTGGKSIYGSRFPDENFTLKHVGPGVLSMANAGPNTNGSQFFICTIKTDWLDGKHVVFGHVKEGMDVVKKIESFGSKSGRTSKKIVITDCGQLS
# PPIL1 = target: T1, PPIL1 (Homo sapiens, UniProt Q9Y3C6); assay: Chymotrypsin coupled prolyl-isomerase assay; type: biochemical; details: for PPIL1 prolyl-isomerase assay raw dose-response value: Fig. 3b source data, replicates
# T1 construct: PPIL1 (UniProtKB Entry Q9Y3C6: residues 1–166); made in house; host or cells: E. coli BL21(DE3)
# T1 sequence (Q9Y3C6 1-166): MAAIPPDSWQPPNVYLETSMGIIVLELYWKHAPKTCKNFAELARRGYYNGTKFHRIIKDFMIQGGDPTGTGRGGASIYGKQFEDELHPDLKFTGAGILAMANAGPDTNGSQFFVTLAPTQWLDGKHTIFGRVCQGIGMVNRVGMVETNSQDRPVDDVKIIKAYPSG
# CypB = target: T2, CypB (Homo sapiens, UniProt P23284); assay: biochemical; details: for CypB prolyl-isomerase assay raw dose-response value: Fig. 3b source data, replicates
# T2 construct: PPIB (UniProtKB Entry P23284: residues 34–216); His6 with TEV site (2BT vector leader) (N); made in house; host or cells: E. coli BL21(DE3)
# T2 sequence (P23284 34-216): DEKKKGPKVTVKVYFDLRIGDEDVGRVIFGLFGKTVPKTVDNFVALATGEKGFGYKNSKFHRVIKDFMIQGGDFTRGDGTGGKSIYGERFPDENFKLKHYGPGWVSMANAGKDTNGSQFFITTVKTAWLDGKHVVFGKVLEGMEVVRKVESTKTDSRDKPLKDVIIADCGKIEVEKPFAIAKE
# Summary of the method: (§1)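 Steps: cyclophilin plus compound 5 min at 2–3 °C; α-chymotrypsin added, 5 min more; Suc-AAPF-AMC substrate in LiCl/trifluoroethanol injected and fluorescence followed 330 s. Finals: 5 nM enzyme, 25 µM chymotrypsin, 5 µM substrate, 0.25% DMSO.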
# Cyp40 = Cyp40 (Homo sapiens, UniProt Q08752); assay: Chymotrypsin coupled prolyl-isomerase assay; details: for Cyp40 prolyl-isomerase assay raw dose-response value: Fig. 3b source data, replicates
# Sequence of Cyp40 (Q08752 1-183): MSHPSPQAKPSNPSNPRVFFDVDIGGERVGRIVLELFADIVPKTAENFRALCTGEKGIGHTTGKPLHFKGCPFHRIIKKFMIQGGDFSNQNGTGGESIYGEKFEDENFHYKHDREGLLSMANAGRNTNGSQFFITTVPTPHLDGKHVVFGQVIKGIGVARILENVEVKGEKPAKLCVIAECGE
# Summary of the method: as §1
# PPWD1 = target: T3, PPWD1 (Homo sapiens, UniProt Q96BP3); assay: Chymotrypsin coupled prolyl-isomerase assay; type: biochemical; details: for PPWD1 prolyl-isomerase assay raw dose-response value: Fig. 3b source data, replicates
# T3 construct: PPWD1 (UniProtKB Entry Q96BP3: residues 473–646); host or cells: E. coli BL21(DE3)
# T3 sequence (Q96BP3 473-646): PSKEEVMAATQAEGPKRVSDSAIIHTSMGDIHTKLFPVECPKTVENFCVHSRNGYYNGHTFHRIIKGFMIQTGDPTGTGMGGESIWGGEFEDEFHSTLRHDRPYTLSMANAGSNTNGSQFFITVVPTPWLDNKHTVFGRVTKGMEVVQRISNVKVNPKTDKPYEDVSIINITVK
# Experimental: Five microliters of compound pre-dissolved in 5% DMSO/assay buffer was then added to appropriate wells and incubated at 2–3 °C for 5 min. Five microliters of 0.5 mM α-chymotrypsin from bovine pancreas (Type II, lyophilized powder, Millipore-Sigma) in 20% 1 mM HCl/Assay Buffer was then added to each well and incubated at 2–3 °C for 5 min. The plate was then quickly transferred to a FLIPR Tetra High-Throughput Cellular Screening System (Molecular Devices). Using the internal liquid handling system of the FLIPR, 1 µL 0.5 mM Suc-AAPF-AMC (Chymotrypsin Substrate II, Millipore-Sigma) dissolved in 0.55 M LiCl/2,2,2-trifluoroethanol was added to each well, which was then mixed for 5 s, followed by immediate fluorescence measurements every 1 s for 330 s using a 360–380 nm excitation LED module and a 400–460 nm emission filter. […] Raw fluorescence data was analyzed by non-linear regression analysis with Prism v.9 by fitting one-phase association curves to each well. Analyses were halted after the calculated maximum fluorescent value owing to observed fluorescent bleaching during the sustained fluorescent plateau. Rate constants calculated for each well (s^−1) were then normalized to substrate only (no prolyl-isomerase) and enzyme + substrate only controls.
# NKTR = target: T4, NKTR (Homo sapiens, UniProt P30414); assay: Chymotrypsin coupled prolyl-isomerase assay; type: biochemical; details: for NKTR prolyl-isomerase assay raw dose-response value: Fig. 3b source data, replicates
# T4 construct: NKTR (UniProtKB Entry P30414: residues 7–179); host or cells: E. coli BL21(DE3)
# T4 sequence (P30414 7-179): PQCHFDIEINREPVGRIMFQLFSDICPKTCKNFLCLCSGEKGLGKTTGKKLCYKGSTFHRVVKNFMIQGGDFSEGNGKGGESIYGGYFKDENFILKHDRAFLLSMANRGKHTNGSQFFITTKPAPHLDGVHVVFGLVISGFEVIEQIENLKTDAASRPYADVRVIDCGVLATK
smiles,measurement,setting,value
NCCOCCNC(=O)[C@@H]1CCNC(=O)/C=C/C(=O)N2CCC[C@](Cc3ccccc3)(C2)C(=O)N[C@@H](Cc2ccc(-c3ccc(CCC(=O)O)cc3)cc2)C(=O)NCc2ccccc2CC(=O)N1 [Compound B23],IC50,CypD,7.8 nM
same,CypD prolyl-isomerase assay raw dose-response value,CypD; Dose 0.000457247 µM,0.08239 and 0.08493 and 0.09684
same,CypD prolyl-isomerase assay raw dose-response value,CypD; Dose 0.00137174 µM,0.07973 and 0.07546 and 0.07833
same,CypD prolyl-isomerase assay raw dose-response value,CypD; Dose 0.00411523 µM,0.06213 and 0.06183 and 0.0629
same,CypD prolyl-isomerase assay raw dose-response value,CypD; Dose 0.0123457 µM,0.03857 and 0.03915 and 0.03469
same,CypD prolyl-isomerase assay raw dose-response value,CypD; Dose 0.037037 µM,0.02379 and 0.02491 and 0.0225
same,CypD prolyl-isomerase assay raw dose-response value,CypD; Dose 0.111111 µM,0.01572 and 0.01536 and 0.01393
same,CypD prolyl-isomerase assay raw dose-response value,CypD; Dose 0.333333 µM,0.01408 and 0.01283 and 0.01168
same,CypD prolyl-isomerase assay raw dose-response value,CypD; Dose 1 µM,0.01156 and 0.01128 and 0.01193
same,selectivity for CypD over CypE and CypB,CypD; prolyl-isomerase IC50,~ 3 fold
same,PPIL1 prolyl-isomerase assay raw dose-response value,PPIL1; Dose 0.0201875 µM,0.07231 and 0.05967 and 0.06308
same,PPIL1 prolyl-isomerase assay raw dose-response value,PPIL1; Dose 0.0605624 µM,0.05364 and 0.0572 and 0.05937
same,PPIL1 prolyl-isomerase assay raw dose-response value,PPIL1; Dose 0.181687 µM,0.04207 and 0.04374 and 0.05902
same,PPIL1 prolyl-isomerase assay raw dose-response value,PPIL1; Dose 0.545062 µM,0.02667 and 0.03161 and 0.02807
same,PPIL1 prolyl-isomerase assay raw dose-response value,PPIL1; Dose 1.63519 µM,0.01818 and 0.02247 and 0.01913
same,PPIL1 prolyl-isomerase assay raw dose-response value,PPIL1; Dose 4.90556 µM,0.01354 and 0.01399 and 0.01299
same,PPIL1 prolyl-isomerase assay raw dose-response value,PPIL1; Dose 14.7167 µM,0.01244 and 0.01258 and 0.01177
same,PPIL1 prolyl-isomerase assay raw dose-response value,PPIL1; Dose 44.15 µM,0.01521 and 0.01086 and 0.01169
same,IC50,"PPIL1; wild-type PPIL1, read-out: Wild-Type Cyclophilin Prolyl Isomerase Inhibition IC50 Values, PPIL1",130 nM
same,IC50,"CypB; CypB (comparator for CypB E121S), read-out: Mutant Cyclophilin Prolyl Isomerase Inhibition IC50 Values, CypB",22 nM
same,CypB prolyl-isomerase assay raw dose-response value,CypB; Dose 0.00457247 µM,0.0629 and 0.06607 and 0.09046
same,CypB prolyl-isomerase assay raw dose-response value,CypB; Dose 0.0137174 µM,0.04838 and 0.05763 and 0.06969
same,CypB prolyl-isomerase assay raw dose-response value,CypB; Dose 0.0411523 µM,0.04508 and 0.04072 and 0.05012
same,CypB prolyl-isomerase assay raw dose-response value,CypB; Dose 0.123457 µM,0.03305 and 0.03113 and 0.02819
same,CypB prolyl-isomerase assay raw dose-response value,CypB; Dose 0.37037 µM,0.02119 and 0.01977 and 0.01945
same,CypB prolyl-isomerase assay raw dose-response value,CypB; Dose 1.11111 µM,0.01691 and 0.01533 and 0.01651
same,CypB prolyl-isomerase assay raw dose-response value,CypB; Dose 3.33333 µM,0.01532 and 0.01471 and 0.0137
same,CypB prolyl-isomerase assay raw dose-response value,CypB; Dose 10 µM,0.01585 and 0.0132 and 0.01359
same,IC50,"CypB; prolyl-isomerase inhibition, 5 nM cyclophilin, read-out: IC50 CypB",22 ± 4 nM
same,IC50,"CypB; prolyl-isomerase inhibition, read-out: IC50 CypB",22 nM
same,IC50,"CypB; wild-type CypB, read-out: Wild-Type Cyclophilin Prolyl Isomerase Inhibition IC50 Values, CypB",22 nM
same,Cyp40 prolyl-isomerase assay raw dose-response value,Cyp40; Dose 0.0201875 µM,0.0705 and 0.08875 and 0.06706
same,Cyp40 prolyl-isomerase assay raw dose-response value,Cyp40; Dose 0.0605624 µM,0.06428 and 0.07232 and 0.08253
same,Cyp40 prolyl-isomerase assay raw dose-response value,Cyp40; Dose 0.181687 µM,0.08019 and 0.07121 and 0.08682
same,Cyp40 prolyl-isomerase assay raw dose-response value,Cyp40; Dose 0.545062 µM,0.05956 and 0.06358 and 0.0778
same,Cyp40 prolyl-isomerase assay raw dose-response value,Cyp40; Dose 1.63519 µM,0.04659 and 0.04863 and 0.05555
same,Cyp40 prolyl-isomerase assay raw dose-response value,Cyp40; Dose 4.90556 µM,0.02767 and 0.03026 and 0.03081
same,Cyp40 prolyl-isomerase assay raw dose-response value,Cyp40; Dose 14.7167 µM,0.0182 and 0.01915 and 0.02408
same,Cyp40 prolyl-isomerase assay raw dose-response value,Cyp40; Dose 44.15 µM,0.01601 and 0.01375 and 0.01814
same,IC50,"Cyp40; Wild-Type Cyclophilin Prolyl Isomerase Inhibition IC50 Values, Cyp40, wild-type Cyp40",1700 nM
same,PPWD1 prolyl-isomerase assay raw dose-response value,PPWD1; Dose 0.0201875 µM,0.05033 and 0.05427 and 0.05661
same,PPWD1 prolyl-isomerase assay raw dose-response value,PPWD1; Dose 0.0605624 µM,0.05286 and 0.05252 and 0.05358
same,PPWD1 prolyl-isomerase assay raw dose-response value,PPWD1; Dose 0.181687 µM,0.05234 and 0.04225 and 0.05023
same,PPWD1 prolyl-isomerase assay raw dose-response value,PPWD1; Dose 0.545062 µM,0.05186 and 0.04473 and 0.04345
same,PPWD1 prolyl-isomerase assay raw dose-response value,PPWD1; Dose 1.63519 µM,0.04986 and 0.04682 and 0.05314
same,PPWD1 prolyl-isomerase assay raw dose-response value,PPWD1; Dose 4.90556 µM,0.03903 and 0.03772 and 0.04075
same,PPWD1 prolyl-isomerase assay raw dose-response value,PPWD1; Dose 14.7167 µM,0.03486 and 0.03306 and 0.03245
same,PPWD1 prolyl-isomerase assay raw dose-response value,PPWD1; Dose 44.15 µM,0.02892 and 0.02371 and 0.02381
same,IC50,"PPWD1; wild-type PPWD1, read-out: Wild-Type Cyclophilin Prolyl Isomerase Inhibition IC50 Values, PPWD1",11000 nM
same,NKTR prolyl-isomerase assay raw dose-response value,NKTR; Dose 0.0201875 µM,0.03059 and 0.03481 and 0.04051
same,NKTR prolyl-isomerase assay raw dose-response value,NKTR; Dose 0.0605624 µM,0.03143 and 0.03531 and 0.03914
same,NKTR prolyl-isomerase assay raw dose-response value,NKTR; Dose 0.181687 µM,0.02923 and 0.03481 and 0.03355
same,NKTR prolyl-isomerase assay raw dose-response value,NKTR; Dose 0.545062 µM,0.03762 and 0.03481 and 0.03206
same,NKTR prolyl-isomerase assay raw dose-response value,NKTR; Dose 1.63519 µM,0.03593 and 0.02854 and 0.03455
same,NKTR prolyl-isomerase assay raw dose-response value,NKTR; Dose 4.90556 µM,0.0369 and 0.03251 and 0.03563
same,NKTR prolyl-isomerase assay raw dose-response value,NKTR; Dose 14.7167 µM,0.03118 and 0.02949 and 0.02947
same,NKTR prolyl-isomerase assay raw dose-response value,NKTR; Dose 44.15 µM,0.02842 and 0.02625 and 0.02899
same,IC50,"NKTR; wild-type NKTR, read-out: Wild-Type Cyclophilin Prolyl Isomerase Inhibition IC50 Values, NKTR",> 100000 nM
